EP0598515A1, “Method for herbicidal activity-enhancing, activity-enhanced herbicidal composition and activity-enhancing composition” (ISHIHARA SANGYO KAISHA LTD., priority 1992, dated 1994)
Where “and” joins values, the source holds several entries; their conditions need not be identical. Identical values can stand only once. Like-named read-outs stand apart in the source and are kept apart here.

What was measured:
Format in all cases: in vivo
total evaluation = experiment: Test Example 12: field plot test, total evaluation of growth inhibition; conditions: 648 h, Example 8 suspension concentrate, 27 days after treatment, field plots, read-out: Growth Inhibition (%) TE; for inhibition at 40 g/ha: Compound A 40 g/ha; for inhibition at 60 g/ha: Compound A 60 g/ha
Excerpt: In field plots of 3 m² (1 m × 3 m) unit arranged in a duplicate system, seeds of corn, crabgrass (Digitaria sanguinalis L.), green foxtail (Setaria viridis L.), common lambsquarters (Chenopodium album L.), slender amaranth (Amaranthus virdis L.) and velvetleaf (Abutilon theophrasti MEDIC.) were sown and grown. Also, barnyardgrass (Echinochloa crus-galli L.), henbit (Lamiun amplexlcaule L.), pale smartweed (Polygonum lapathifolium L.) and threeseeded copperleaf (Acalypha australis L.) were allowed to grow spontaneously. When the plants grew to certain stages (corn: 6.1 to 6.5-leaf stage, crabgrass: 2.0 to 4.5-leaf stage, green foxtail: 3.0 to 4.5-leaf stage, common lambsquarters: 4.0 to 8.0-leaf stage, slender amaranth: 1.0 to 4.0-leaf stage, velvetleaf: 2.0 to 3.5-leaf stage, barnyardgrass: 3.0 to 4.5-leaf stage, henbit: 2.0 to 5.0 cm, pale smartweed: 3.0 to 5.0-leaf stage and threeseeded copperleaf: 2.0 to 4.0-leaf stage), the oil-based suspension concentrate obtained in Example 8 was diluted with 200 liters/hectare of water containing a predetermined amount of Frigate and was applied foliarly to the plants with a small spray gun.
Twenty seven days after treatment, the growth inhibition of plants except for corn plants was evaluated with visual observation in the same manner as in Test Example 1 and are shown in Table 12.

corn plants = experiment: Test Example 13: field plot test, injury on corn; conditions: Example 8 suspension concentrate, 4 days after treatment, 0 for no injury to 5 for severe injure
Excerpt: (§1) In field plots of 4 m² (1 m × 4 m) unit arranged in a duplicate system, seeds of corn, crabgrass (Digitaria sanguinalis L.) common lambsquarters (Chenopodium album L.), slender amaranth (Amaranthus viridis L.), velvetleaf (Abutilon theophrasti MEDIC.) and common cocklebur (Xanthium strumarium L.) were sown and grown. Also, green foxtail (Setaria viridis L.) and barnyardgrass (Echinochloa crus-galli L.) were allowed to grow spontaneously. When the plants grew to certain stages (corn: 4.2 to 6.0-leaf stage, crabgrass: 3.2 to 5.0-leaf stage, common lambsquarters: 3.0 to 6.0-leaf stage, slender amaranth: 2.0 to 5.0-leaf stage, velvetleaf: 1.5 to 4.0-leaf stage, common cocklebur: cotyledonal to 3.5-leaf stage, green foxtail: 3.0 to 5.0-leaf stage and barnyardgrass: 3.0 to 5.0-leaf stage), the oil-based suspension concentrate obtained in Example 8 was diluted with 200 liters/hectare of water containing a predetermined amount of Frigate and was applied foliarly to the plants with a small spray gun.
On the other hand, 4 days after treatment, corn plants were examined for condition of injury (degree of discoloration and yellowing) with visual observation and the results are also shown in Table 13 (0 for no injury to 5 for severe injure).

[1] = test system: Common lambsquarters (Chenopodium album L.); experiment: Test Example 13: field plot test, growth inhibition; conditions: 648 h, Example 8 suspension concentrate, 27 days after treatment, field plots, read-out: Growth Inhibition (%) CA; for inhibition at 30 g/ha: Compound A 30 g/ha; for inhibition at 40 g/ha: Compound A 40 g/ha
Excerpt: as §1
(§2) Twenty seven days after treatment, the growth inhibition of plants except for corn plants was evaluated with visual observation in the same manner as in Test Example 1 and are shown in Table 13.

[2] = test system: Crabgrass (Digitaria sanguinalis L.); experiment: as above; conditions: 648 h, Example 8 suspension concentrate, 27 days after treatment, field plots, read-out: Growth Inhibition (%) DS; for inhibition at 30 g/ha: Compound A 30 g/ha; for inhibition at 40 g/ha: Compound A 40 g/ha
Excerpt: as §1, §2

[3] = test system: Velvetleaf (Abutilon theophrasti MEDIC.); experiment: as above; conditions: 648 h, Example 8 suspension concentrate, 27 days after treatment, field plots; for inhibition at 30 g/ha: Compound A 30 g/ha; for inhibition at 40 g/ha: Compound A 40 g/ha
Excerpt: as §1, §2

[4] = test system: barnyardgrass (Echinochloa crus-galli L.); experiment: as above; conditions: Example 8 suspension concentrate, 27 days after treatment, field plots; for inhibition at 30 g/ha: Compound A 30 g/ha
Excerpt: as §1, §2

[5] = test system: common cocklebur (Xanthium strumarium L.); experiment: as above; conditions: Example 8 suspension concentrate, 27 days after treatment, field plots
Excerpt: as §1, §2

[6] = test system: green foxtail (Setaria viridis L.); experiment: as above; conditions: Example 8 suspension concentrate, 27 days after treatment, field plots; for inhibition at 40 g/ha: Compound A 40 g/ha
Excerpt: as §1, §2

[7] = test system: slender amaranth (Amaranthus viridis L.); experiment: as above; conditions: 648 h, Example 8 suspension concentrate, 27 days after treatment, field plots, read-out: Growth Inhibition (%) AV; for inhibition at 30 g/ha: Compound A 30 g/ha; for inhibition at 40 g/ha: Compound A 40 g/ha
Excerpt: as §1, §2

[8] = Frigate 0.2 % by volume, Compound A 20 g/ha
[9] = Frigate 0.2 % by volume, Compound A 30 g/ha
[10] = Frigate 0.1 % by volume, Compound A 30 g/ha
[11] = Frigate 0.2 % by volume, Compound A 40 g/ha
[12] = Frigate: No addition, Compound A 30 g/ha
[13] = Frigate: No addition, Compound A 40 g/ha
[14] = Frigate: No addition, Compound A 50 g/ha

In the case of `COc1cc(OC)nc(NC(=O)NS(=O)(=O)c2ncccc2C(=O)N(C)C)n1` [Compound A, N-[(4,6-dimethoxypyrimidin-2-yl)aminocarbonyl]-3-dimethylaminocarbonyl-2-pyridinesulfonamide], the inhibition at 20 g/ha (total evaluation; [8]) is reported as 95%, the inhibition at 30 g/ha (total evaluation; [9]) is reported as 95% and the inhibition at 40 g/ha (total evaluation; Frigate 0.2 % by volume) is reported as 95%. The inhibition at 60 g/ha (total evaluation; Frigate 0.2 % by volume) was 99%, the inhibition at 40 g/ha (total evaluation; Frigate: No addition) was 70% and the inhibition at 60 g/ha (total evaluation; Frigate: No addition) was 70%. The “Injury on Corn” value (corn plants; [10]) was 1.0, the “Injury on Corn” value (corn plants; Frigate 0.1 % by volume, Compound A 40 g/ha) was 1.0 and the “Injury on Corn” value (corn plants; [8]) was 1.0. The “Injury on Corn” value (corn plants; [9]) was 1.0 and 1.5, the “Injury on Corn” value (corn plants; [11]) was 1.5 and 2.0 and the “Injury on Corn” value (corn plants; [12]) was 1.0. For the same compound, the “Injury on Corn” value (corn plants; [13]) was 1.0 and 1.5, the “Injury on Corn” value (corn plants; [14]) was 1.0 and the inhibition at 30 g/ha ([1]; Frigate 0.1 % by volume) was 80%. It also gave an inhibition at 40 g/ha ([1]; Frigate 0.1 % by volume) of 90%, an inhibition at 30 g/ha ([1]; Frigate 0.2 % by volume) of 85% and an inhibition at 40 g/ha ([1]; Frigate 0.2 % by volume) of 90%. The inhibition at 30 g/ha ([1]; Frigate: No addition) was 45%, the inhibition at 40 g/ha ([1]; Frigate: No addition) was 65% and the inhibition at 50 g/ha [1, 14] was 65%. It also gave an inhibition at 30 g/ha ([2]; Frigate 0.1 % by volume) of 85%, an inhibition at 40 g/ha ([2]; Frigate 0.1 % by volume) of 95% and an inhibition at 20 g/ha [2, 8] of 85%. For the same compound, the inhibition at 30 g/ha ([2]; Frigate 0.2 % by volume) was 85%, the inhibition at 40 g/ha ([2]; Frigate 0.2 % by volume) was 90% and the inhibition at 30 g/ha ([2]; Frigate: No addition) was 75%. The inhibition at 40 g/ha ([2]; Frigate: No addition) was 80%, the inhibition at 50 g/ha [2, 14] was 85% and the inhibition at 30 g/ha ([3]; Frigate 0.1 % by volume) was 70%. It also gave an inhibition at 40 g/ha ([3]; Frigate 0.1 % by volume) of 70%, an inhibition at 20 g/ha [3, 8] of 55% and an inhibition at 30 g/ha ([3]; Frigate 0.2 % by volume) of 70%. The inhibition at 40 g/ha ([3]; Frigate 0.2 % by volume) was 75%, the inhibition at 30 g/ha ([3]; Frigate: No addition) was 30% and the inhibition at 40 g/ha ([3]; Frigate: No addition) was 55%. It also gave an inhibition at 50 g/ha [3, 14] of 70%, an inhibition at 40 g/ha ([4]; Echinochloa crus-galli, 648 h, Frigate 0.1 % by volume, Compound A 40 g/ha, read-out: Growth Inhibition (%) EC) of 100% and an inhibition at 20 g/ha ([4]; Echinochloa crus-galli, 648 h, Frigate 0.2 % by volume, Compound A 20 g/ha, read-out: Growth Inhibition (%) EC) of 100%. For the same compound, the inhibition at 30 g/ha ([4]; Echinochloa crus-galli, 648 h, Frigate 0.2 % by volume, read-out: Growth Inhibition (%) EC) was 100%, the inhibition at 40 g/ha ([4]; Echinochloa crus-galli, 648 h, Frigate 0.2 % by volume, Compound A 40 g/ha, read-out: Growth Inhibition (%) EC) was 100% and the inhibition at 30 g/ha ([4]; Echinochloa crus-galli, 648 h, Frigate: No addition, read-out: Growth Inhibition (%) EC) was 65%. For the same compound, the inhibition at 40 g/ha ([4]; Echinochloa crus-galli, 648 h, Frigate: No addition, Compound A 40 g/ha, read-out: Growth Inhibition (%) EC) was 75%, the “Growth Inhibition (%) EC” value [4, 13] was 60% and the “Growth Inhibition (%) XS” value [5, 11] was 65%. For the same compound, the “Growth Inhibition (%) XS” value [5, 12] was 25% and 50%, the inhibition at 30 g/ha ([5]; Xanthium strumarium, 648 h, Frigate 0.1 % by volume, Compound A 30 g/ha, read-out: Growth Inhibition (%) XS) was 80% and the inhibition at 40 g/ha ([5]; Xanthium strumarium, 648 h, Frigate 0.1 % by volume, Compound A 40 g/ha, read-out: Growth Inhibition (%) XS) was 80%. It also gave an inhibition at 20 g/ha ([5]; Xanthium strumarium, 648 h, Frigate 0.2 % by volume, Compound A 20 g/ha, read-out: Growth Inhibition (%) XS) of 80%, an inhibition at 30 g/ha ([5]; Xanthium strumarium, 648 h, Frigate 0.2 % by volume, Compound A 30 g/ha, read-out: Growth Inhibition (%) XS) of 85% and an inhibition at 40 g/ha ([5]; Xanthium strumarium, 648 h, Frigate: No addition, Compound A 40 g/ha, read-out: Growth Inhibition (%) XS) of 75%. The inhibition at 50 g/ha ([5]; Xanthium strumarium, 648 h, Frigate: No addition, Compound A 50 g/ha, read-out: Growth Inhibition (%) XS) was 70%, the “Growth Inhibition (%) SV” value [6, 10] was 40% and the inhibition at 40 g/ha ([6]; Setaria viridis, 648 h, Frigate 0.1 % by volume, read-out: Growth Inhibition (%) SV) was 70%. The inhibition at 20 g/ha ([6]; Setaria viridis, 648 h, Frigate 0.2 % by volume, Compound A 20 g/ha, read-out: Growth Inhibition (%) SV) was 60%, the inhibition at 30 g/ha ([6]; Setaria viridis, 648 h, Frigate 0.2 % by volume, Compound A 30 g/ha, read-out: Growth Inhibition (%) SV) was 65% and the inhibition at 40 g/ha ([6]; Setaria viridis, 648 h, Frigate 0.2 % by volume, read-out: Growth Inhibition (%) SV) was 75%. It also gave an inhibition at 30 g/ha ([6]; Setaria viridis, 648 h, Frigate: No addition, Compound A 30 g/ha, read-out: Growth Inhibition (%) SV) of 65%, an inhibition at 40 g/ha ([6]; Setaria viridis, 648 h, Frigate: No addition, read-out: Growth Inhibition (%) SV) of 70% and an inhibition at 50 g/ha ([6]; Setaria viridis, 648 h, Frigate: No addition, Compound A 50 g/ha, read-out: Growth Inhibition (%) SV) of 80%. The inhibition at 30 g/ha ([7]; Frigate 0.1 % by volume) was 95%, the inhibition at 40 g/ha ([7]; Frigate 0.1 % by volume) was 90% and the inhibition at 20 g/ha [7, 8] was 85%. For the same compound, the inhibition at 30 g/ha ([7]; Frigate 0.2 % by volume) was 90%, the inhibition at 40 g/ha ([7]; Frigate 0.2 % by volume) was 95% and the inhibition at 30 g/ha ([7]; Frigate: No addition) was 90%. For the same compound, the inhibition at 40 g/ha ([7]; Frigate: No addition) was 95% and the inhibition at 50 g/ha [7, 14] was 95%.
